Values of other authors in US20060198888A1, “Tolperisone-containing pharmaceutical preparation with controllable active-substance release for oral administration” (Sanochemia Pharmazeutika AG, priority 2004, published 2006).
Where two headings read alike, the source gives them in different places.

How the values were obtained:
[1] = JP-A-53-40779
[2] = rat

fraction converted by in-vivo inversion into S(+) tolperisone [2]	extent of in-vivo inversion into R(−) tolperisone [2]	SMILES	pharmacological effect ([1]; listed as 1-tolperisone)	pharmacological effect ([1]; listed as d-tolperisone)
up to 20%		Cc1ccc(C(=O)C(C)CN2CCCCC2)cc1 (stereo not drawn) [R(−) tolperisone]	vaso- or bronchodilatory effect	
	up to 20%	Cc1ccc(C(=O)C(C)CN2CCCCC2)cc1 (stereo not drawn) [S(+) tolperisone]		muscle-relaxing effect
